One may read the t½ as the time in which the quantity being followed falls by half. As usually defined, the EC50 is the concentration that produces a half-maximal response.

Data on two substances can be found in US9822157B2 (priority 2013, dated 2017).

Data set [1] in a line: Stability in human serum (LC-MS). It counts as in vitro ADME. The conditions noted are these: 10 μM peptide, 37 degrees C, up to 24 hours. The method, then: Serum stability experiments were undertaken to complement the in vivo results and assist in the design of potent, stable Ferroportin agonists. In order to predict the stability in humans, ex vivo stability studies were initially performed in human serum.
Samples were taken at various time points up to 24 hours. The samples were separated from serum proteins and analysed for the presence of the peptide of interest using LC-MS. The amount of intact peptide in each sample was calculated using the analyte peak area in relation to the zero time point.
The peptides were also tested for other pharmacokinetic/pharmacodynamic (PK/PD) parameters using methods commonly know by the skilled artisan. These parameters included determinations regarding stability (hours stable in plasma from the indicated human or rat subject), half-life in mice, and in vitro activity (EC50), tested as described in Example 2.

The target in another data set is T1, human ferroportin (Homo sapiens, UniProt Q9NP59).
T1 sequence (Q9NP59 1-571): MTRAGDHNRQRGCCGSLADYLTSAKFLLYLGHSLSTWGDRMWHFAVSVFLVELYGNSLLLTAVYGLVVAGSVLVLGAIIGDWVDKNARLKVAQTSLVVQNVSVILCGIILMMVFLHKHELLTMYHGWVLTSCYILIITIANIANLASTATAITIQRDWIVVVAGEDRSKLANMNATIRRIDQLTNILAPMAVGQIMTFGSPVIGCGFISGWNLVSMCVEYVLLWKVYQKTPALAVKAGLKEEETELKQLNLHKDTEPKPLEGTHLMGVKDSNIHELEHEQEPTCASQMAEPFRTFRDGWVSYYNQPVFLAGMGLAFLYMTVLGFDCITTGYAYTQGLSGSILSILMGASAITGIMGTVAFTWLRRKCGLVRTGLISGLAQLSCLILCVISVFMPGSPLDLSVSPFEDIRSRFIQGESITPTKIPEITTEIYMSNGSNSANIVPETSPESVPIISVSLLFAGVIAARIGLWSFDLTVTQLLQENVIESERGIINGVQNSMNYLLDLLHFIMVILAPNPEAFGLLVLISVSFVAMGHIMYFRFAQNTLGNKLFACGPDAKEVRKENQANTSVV
The class given is cell-based. The text has this:
The cDNA encoding the human ferroportin (SLC40A1) was cloned from a cDNA clone from Origene (NM_014585). The DNA encoding the ferroportin was amplified by PCR using primers also encoding terminal restriction sites for subcloning, but without the termination codon. The ferroportin receptor was subcloned into a mammalian GFP expression vector containing a neomycin (G418) resistance marker in such that the reading frame of the ferroportin was fused in frame with the GFP protein. The fidelity of the DNA encoding the protein was confirmed by DNA sequencing. HEK293 cells were used for transfection of the ferroportin-GFP receptor expression plasmid. The cells were grown according to standard protocol in growth medium and transfected with the plasmids using Lipofectamine (manufacturer's protocol, Invitrogen). […] The cells were propagated and frozen in aliquots.
A retro inverse peptide is a peptide with a reversed sequence in all D amino acids. […] The EC50 of these reference compounds for ferroportin degradation was determined according to the activity assay described above.

Where [2] appears, read: Hepcidin analog peptides, read-out: Potency EC50.
Setting [3] is: read-out: EC50 (nM) (n > 3), alanine scan of Compound 18.

Read-outs that look alike come from different tables or passages of the source.

Consider “H-DTHFPICIFGPRSKGWVCM-NH2 (cysteine pairing not given here) [Compound 18]”, for which the “t½” value in data set [1] is 2.32 h. The EC50 at human ferroportin (setting [2]) and on human ferroportin (setting [3]) was 125 nM in each case.
In the case of “H-DTHFPICIFGPRSKGWACM-NH2 (cysteine pairing not given here) [Compound 47]”, the “t½” value in data set [1] was roughly 40 h. The EC50 on human ferroportin (setting [2]) and at human ferroportin (setting [3]) was 313 nM in each case.
